Data taken from ChEMBL document CHEMBL1201862, “PubChem BioAssay data set” (2004).
Activity calls are given as the source filed them. Rule as the data show it, for most assays here: actives have a measured EC50 and inactives only a lower limit.

Tests used:
Streptokinase A = molecular target: T1, Streptokinase A (Streptococcus pyogenes serotype M1, UniProt P10520); assay: S. pyogenes streptokinase expression inhibitors, potency, dose response, plasminogen activation absorbance, OD405 (AID 1914); format: functional, Streptococcus pyogenes M1 GAS;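 also: secreted streptokinase activity via plasminogen activation per viability signal from cell pellet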
T1 sequence (P10520 whole entry): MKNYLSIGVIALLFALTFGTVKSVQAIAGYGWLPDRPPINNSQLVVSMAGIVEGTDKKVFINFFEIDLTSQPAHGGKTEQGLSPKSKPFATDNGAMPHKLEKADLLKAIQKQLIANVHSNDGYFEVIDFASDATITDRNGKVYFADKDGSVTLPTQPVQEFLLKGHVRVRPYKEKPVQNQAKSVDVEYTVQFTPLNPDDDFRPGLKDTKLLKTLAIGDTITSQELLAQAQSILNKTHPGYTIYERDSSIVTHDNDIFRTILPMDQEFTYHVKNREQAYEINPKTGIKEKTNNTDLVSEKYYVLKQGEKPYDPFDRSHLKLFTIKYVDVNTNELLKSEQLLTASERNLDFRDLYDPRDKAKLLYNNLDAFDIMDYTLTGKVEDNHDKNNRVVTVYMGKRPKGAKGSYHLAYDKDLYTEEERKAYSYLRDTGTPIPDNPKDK

Streptococcus = assay: Group A Streptococcus viability loss, dose response, counter-screen for streptokinase expression inhibitor project, luminescence, BacTiterGlo (AID 1915); format: functional, organism-based;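 also: potency for reduction of bacterial viability or growth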
[1] = cytotoxicity toward NIH3T3 fibroblasts, dose response, counter-screen, cell-based, ATP luminescence, mouse fibroblasts (AID 2010); format: functional;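 also: cells exposed to compound for about 90 hours before reading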
[2] = inhibitors of intracellular T. cruzi replication, confirmation, NIH3T3 host cells, beta-gal luminescence (AID 2044); format: functional, cell-based;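 also: intracellular parasites grown in NIH/3T3 mouse fibroblasts as host cells; luminescent beta-galactosidase reporter signal from transgenic T. cruzi replicating inside host cells; inhibitors lower the luminescence signal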
[3] = molecular target: T2, Corticotropin-releasing factor receptor 2/Corticotropin-releasing factor-binding protein (Homo sapiens, UniProt P24387+Q13324); assay: Dose Response confirmation of uHTS hits for small molecule antagonists of the CRF-binding protein and CRF-R2 receptor complex.; format: functional; settings: read-out: IC50_Mean
T2 sequence (Q13324 whole entry): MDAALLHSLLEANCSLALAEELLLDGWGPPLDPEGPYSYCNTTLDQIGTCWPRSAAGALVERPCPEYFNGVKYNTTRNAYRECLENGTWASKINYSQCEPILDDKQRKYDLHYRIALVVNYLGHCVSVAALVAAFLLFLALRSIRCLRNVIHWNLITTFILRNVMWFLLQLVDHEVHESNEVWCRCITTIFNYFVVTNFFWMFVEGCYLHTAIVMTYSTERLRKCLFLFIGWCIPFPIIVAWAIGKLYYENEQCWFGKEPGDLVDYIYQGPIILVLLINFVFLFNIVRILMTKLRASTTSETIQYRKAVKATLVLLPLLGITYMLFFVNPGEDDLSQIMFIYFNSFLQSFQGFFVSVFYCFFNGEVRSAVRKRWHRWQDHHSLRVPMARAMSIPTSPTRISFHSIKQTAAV
T2 sequence (P24387 whole entry): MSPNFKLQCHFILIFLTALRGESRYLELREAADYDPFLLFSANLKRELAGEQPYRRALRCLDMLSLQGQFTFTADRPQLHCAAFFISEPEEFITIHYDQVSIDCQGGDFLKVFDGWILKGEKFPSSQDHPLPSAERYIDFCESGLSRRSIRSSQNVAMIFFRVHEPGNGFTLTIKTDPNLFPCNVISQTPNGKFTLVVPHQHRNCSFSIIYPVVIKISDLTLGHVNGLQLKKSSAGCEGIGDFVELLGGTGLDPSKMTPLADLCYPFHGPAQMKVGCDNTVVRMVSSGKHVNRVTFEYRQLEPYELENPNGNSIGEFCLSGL

[4] = molecular target: T2, Corticotropin-releasing factor receptor 2/Corticotropin-releasing factor-binding protein; assay: activators of CRF receptor 2 with binding protein – uHTS hits, confirmation (AID 602473); format: functional; settings: read-out: EC50_Mean
Cytochrome P450 2D6 = Cytochrome P450 2D6 (Homo sapiens, UniProt P10635);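 also: CYP2D6 member of a cytochrome P450 panel assay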
[5] = test system: Streptococcus sp. 'group A'; assay: growth inhibition of control SK(-) GAS strain, dose response, counter-screen for streptokinase expression inhibitor project, luminescence, kanamycin, BacTiterGlo, confirmation (AID 1900); format: functional, organism-based

Sequence of Cytochrome P450 2D6 (P10635 whole entry): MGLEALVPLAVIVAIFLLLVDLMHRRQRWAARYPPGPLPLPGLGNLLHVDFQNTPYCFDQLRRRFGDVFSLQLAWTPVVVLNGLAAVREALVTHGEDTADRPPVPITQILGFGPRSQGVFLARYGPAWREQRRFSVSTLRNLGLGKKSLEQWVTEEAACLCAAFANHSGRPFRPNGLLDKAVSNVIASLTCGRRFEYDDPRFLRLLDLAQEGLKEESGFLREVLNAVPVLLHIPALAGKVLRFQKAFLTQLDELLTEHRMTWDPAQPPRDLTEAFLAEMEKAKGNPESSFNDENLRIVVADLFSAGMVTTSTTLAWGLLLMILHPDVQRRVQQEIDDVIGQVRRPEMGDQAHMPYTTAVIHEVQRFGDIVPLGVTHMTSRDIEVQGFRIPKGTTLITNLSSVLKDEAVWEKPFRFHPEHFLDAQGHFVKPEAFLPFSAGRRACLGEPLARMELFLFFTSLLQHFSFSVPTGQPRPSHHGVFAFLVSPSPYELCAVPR

CC(C)(C)CC(=O)N1CCC(c2nc(O)c3nnn(Cc4c(F)cccc4Cl)c3n2)CC1
EC50 (Streptokinase A): > 150 µM (not active)
EC50 (Streptococcus): 16.7 µM (active)

CCOC(=O)c1ccc(NC(S)=NN2CCN(C)CC2)cc1
EC50 [1]: > 60 µM (inconclusive)
EC50 [2]: 1.08 µM (active)

Cc1cc(NS(=O)(=O)c2c(C(=O)N3CCOCC3)c(C)n(C)c2C)ccc1Br
IC50 [3]: > 47.1 µM (inactive)
EC50 [4]: > 53 µM (inactive)

CC(C)Oc1cccc(C(=O)C2CCCN(Cc3cnc(N4CCOCC4)s3)C2)c1 (stereo not drawn)
EC50 [1]: > 30 µM (not active)
EC50 [2]: 0.146 µM (active)

CC1=C(C)CC2(C(=O)NC(=S)NC2=O)C(C)C1 (stereo not drawn)
EC50 [4]: > 53 µM (inactive)

COc1cccc(-c2nc(NCc3ccccc3)c3ccccc3n2)c1
AC50 (Cytochrome P450 2D6): 20 µM (inconclusive)

N#Cc1ccc(CSc2nnc(-c3ccncc3)n2CCc2ccccc2)cc1
EC50 [1]: > 60 µM (not active)
EC50 [2]: 0.772 µM (active)

c1ccc(C(c2nnnn2C2CCCC2)N2CCN(c3nc4ccccc4s3)CC2)cc1 (stereo not drawn)
EC50 [1]: > 60 µM (not active)
EC50 [2]: 1.95 µM (active)

CCCC[C@@H]1C[C@H]1C(NC(=O)c1ccco1)c1ccc(Cl)cc1 (stereo partly drawn)
AC50 (Cytochrome P450 2D6): 39.8 µM (inconclusive)

CSc1ccccc1C(=O)C1CCCN(Cc2cnn(-c3ccccc3)c2)C1 (stereo not drawn)
EC50 [1]: > 60 µM (not active)
EC50 [2]: 0.245 µM (active)

CNc1c([N+](=O)[O-])nn(-c2ccc3c(c2)OCCO3)[n+]1[O-]
EC50 [1]: 20.1 µM (active)
EC50 [2]: 0.68 µM (active)

CC(C(=O)Nc1sccc1C(N)=O)N1C(=O)C2CC=CCC2C1=O (stereo not drawn)
IC50 [3]: > 47.1 µM (inactive)
EC50 [4]: > 53 µM (inactive)

CCOC(=O)Cn1c(CN(Cc2ccccc2)Cc2ccccc2)nc2c1c(=O)[nH]c(=O)n2C
AC50 (Cytochrome P450 2D6): 31.6 µM (inconclusive)

COc1ccc(CN2CCN(Cc3cccc4nonc34)CC2CCO)c(C)c1C (stereo not drawn)
EC50 [1]: > 60 µM (not active)
EC50 [2]: 0.403 µM (active)

CCOP(=O)(OCC)c1cc(CC)ccc1O
IC50 [3]: > 47.1 µM (inactive)
EC50 [4]: > 53 µM (inactive)

CN1CCc2cc3c(cc2[C@@H]1[C@@H]1C(=O)Oc2c1ccc1c2OCO1)OCO3
AC50 (Cytochrome P450 2D6): 39.8 µM (inconclusive)

O=C(c1cnccn1)N1CCC2(CCCN(c3ncccn3)C2)CC1
AC50 (Cytochrome P450 2D6): 15.8 µM (inconclusive)

CCN(CC)CCn1c(SCC(=O)NCCC2=CCCCC2)nc2c(sc3ccccc32)c1=O
EC50 [1]: 15.7 µM (active)
EC50 [2]: 2 µM (active)

Cc1ccccc1S(=O)(=O)Cc1ccc(C(=O)NCCN2CCN(Cc3ccccc3)CC2)o1
EC50 [1]: > 60 µM (not active)
EC50 [2]: 1.4 µM (active)

CC1CCCN(CCOCCSc2ccccc2)C1 (stereo not drawn)
EC50 [1]: > 60 µM (not active)
EC50 [2]: 0.297 µM (active)

Cc1ccc(Nc2c(O)ncnc2O)cc1
IC50 [3]: > 47.1 µM (inactive)
EC50 [4]: > 53 µM (inactive)

COc1ccc(/C=c2\s/c(=C/C(=O)c3ccc(C)cc3)[nH]c2=O)cc1OC
EC50 (Streptokinase A): > 150 µM (not active)
EC50 [4]: 13.4 µM (active)
EC50 [5]: 13.2 µM (active)
EC50 (Streptococcus): > 150 µM (not active)

CN(CC[C@@H](Oc1ccc(-c2ccccc2)cc1)c1ccc(F)cc1)CC(=O)O
AC50 (Cytochrome P450 2D6): 31.6 µM (inconclusive)

Cc1cc(S(=O)(=O)NCc2ccccc2)ccc1OCC(=O)NCC1CCCO1 (stereo not drawn)
EC50 [4]: > 53 µM (inactive)

COc1ccc(C2CC3=Nc4ncnn4C(c4ccccc4C)C3=C(O)C2)c(OC)c1 (stereo not drawn)
EC50 [1]: > 60 µM (not active)
EC50 [2]: 1.56 µM (active)

Fc1ccc(-c2cc(C(F)(F)F)nc(N3CCCCC3)n2)cc1
EC50 (Streptokinase A): 6.14 µM (active)
EC50 [5]: 10.3 µM (active)
EC50 (Streptococcus): 13.1 µM (active)

O=C(NCC1COc2ccccc2O1)c1ccc(NC(=O)C(c2ccccc2)c2ccccc2)cc1 (stereo not drawn)
EC50 [1]: > 60 µM (inconclusive)
EC50 [2]: 1.88 µM (active)

O=C(Nc1cccnc1)c1ccc(-c2ccc(Cl)cc2)o1
IC50 [3]: > 47.1 µM (inactive)
EC50 [4]: > 53 µM (inactive)

O=C(CSc1nnc(NC(=O)c2ccccc2)s1)NCC1CCCO1 (stereo not drawn)
EC50 (Streptokinase A): > 150 µM (not active)
EC50 [5]: > 150 µM (not active)
EC50 (Streptococcus): > 150 µM (not active)

Cc1c(C(=O)Nc2ccc(S(=O)(=O)N(C)C3CCN(C)CC3)cc2)oc2c(Cl)cccc12
EC50 [1]: > 30 µM (not active)
EC50 [2]: 0.85 µM (active)

COc1ccc(O)c(C(=O)c2cc(C#N)c(=O)n(-c3c(C)n(C)n(-c4ccccc4)c3=O)c2)c1
EC50 [4]: 6.39 µM (active)

COc1ccc(/C=C(/C(=O)c2ccc(Cl)cc2Cl)n2cncn2)cc1
EC50 [1]: 31.4 µM (active)
EC50 [2]: 0.423 µM (active)

Cc1cccc(N2CCN(C(=O)c3ccc(Cl)c(S(=O)(=O)N4CCc5ccccc5C4)c3)CC2)c1C
EC50 [1]: > 60 µM (inconclusive)
EC50 [2]: 1.13 µM (active)

Cc1ccc(-c2nn(C(C)(C)C)c3ncnc(NS(=O)(=O)c4ccc([N+](=O)[O-])cc4)c23)cc1
EC50 [1]: > 60 µM (not active)
EC50 [2]: 2.33 µM (active)

CS(=O)(=O)N1CCC2(CC1)CN(Cc1ccccc1)C2
AC50 (Cytochrome P450 2D6): 15.8 µM (inconclusive)

Cn1c2ccccc2c(=O)c2cc(C#Cc3ccc(N)cc3)ccc21
EC50 [5]: 0.713 µM (active)
EC50 (Streptococcus): 3.34 µM (active)

Cc1ccc(N/N=C/C=C/c2ccco2)cc1
EC50 [1]: > 30 µM (not active)
EC50 [2]: 3.31 µM (active)

Cc1noc(C)c1-c1ccc2ncnc(NCc3cccnc3)c2c1
AC50 (Cytochrome P450 2D6): 12.6 µM (inconclusive)

Cc1ccc(NC(=O)c2c(C(F)(F)F)nn(C)c2SCc2ccc(Cl)cc2)cc1C
EC50 [1]: > 60 µM (not active)
EC50 [2]: 2.84 µM (active)

CCOc1ccc(NS(=O)(=O)c2ccc(NC(=O)[C@@H]3CCCC[C@@H]3C(=O)O)cc2)cc1
EC50 [4]: > 53 µM (inactive)

COc1ccc(NC(=O)N2CCCC3(CCN(S(=O)(=O)c4ccccc4)CC3)C2)cc1
AC50 (Cytochrome P450 2D6): 15.8 µM (inconclusive)

O=C(Nc1cccc2ncccc12)c1ccc2c(c1)OCCO2
EC50 [4]: > 53 µM (inactive)

Cc1cccc(Nc2nc(N)nc(CN3CCN(c4ccc(F)cc4)CC3)n2)c1
EC50 (Streptokinase A): > 150 µM (not active)
EC50 [5]: 12.1 µM (active)
EC50 (Streptococcus): 95.3 µM (active)

Cc1cc(NC(=O)CCCn2cnc([N+](=O)[O-])n2)no1
EC50 [1]: > 60 µM (inconclusive)
EC50 [2]: 0.797 µM (active)

CN(C)CCCN(C(=O)c1cc2ccccc2oc1=O)c1nc2c(F)cccc2s1
EC50 [1]: > 60 µM (not active)
EC50 [2]: 0.118 µM (active)

COc1cccc(N/C(SCc2cccc([N+](=O)[O-])c2)=C(/C#N)C(N)=O)c1
EC50 [1]: > 60 µM (not active)
EC50 [2]: 4.17 µM (active)

O=C(CNc1cccc2ccccc12)N/N=C/c1ccc[nH]1
EC50 (Streptokinase A): > 150 µM (not active)
EC50 [5]: > 150 µM (not active)
EC50 (Streptococcus): > 150 µM (not active)

O=C(Nc1nc(-c2ccccc2)cs1)c1cccc([N+](=O)[O-])c1
EC50 [1]: > 60 µM (not active)
EC50 [2]: 2.4 µM (active)

Cc1noc(/C=C/c2ccc(-c3ccccc3Cl)o2)c1[N+](=O)[O-]
EC50 [4]: 5.11 µM (active)

C/C=C/c1ccc(OCC(O)CN(C)Cc2ccc(SC)cc2)c(OC)c1 (stereo not drawn)
EC50 [1]: > 60 µM (not active)
EC50 [2]: 0.388 µM (active)

Cc1cc(S(=O)(=O)NCCC2=CCCCC2)ccc1Br
EC50 (Streptokinase A): 10.4 µM (active)
EC50 [5]: 9.73 µM (active)
EC50 (Streptococcus): > 150 µM (not active)

C[C@H](C(=O)O)c1cccc(Oc2ccccc2)c1
AC50 (Cytochrome P450 2D6): 12.6 µM (inconclusive)

CCOc1ccc(N=C(N)Nc2nc(C)cc(C)n2)cc1
EC50 [4]: 6.95 µM (active)

Cc1ccc(N2C(=O)NC(=O)/C(=C\c3ccoc3)C2=O)cc1
EC50 [4]: > 53 µM (inactive)

Cc1ccccc1NC(=O)C(C)c1cccc(C(=O)c2ccccc2)c1 (stereo not drawn)
AC50 (Cytochrome P450 2D6): 25.1 µM (inconclusive)
